# Source: patent publication US8378117B2 (priority 2005, dated 2013)
# Several values for one entry are separate records, joined by “and”; a condition that tells them apart may be missing. Equal values may be shown once. Read-outs that look alike come from different tables or passages of the source.
# Columns and labels:
# [1] = target: T1, CB1 receptor (Homo sapiens, UniProt P21554); assay: cell-based
# T1 construct: expressed in transfected cells
# How it was run: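 SK-N-MC cells stably co-expressing human CB1 and a CRE-β-galactosidase reporter; forskolin-induced β-gal activity measured after compound treatment, as % of vehicle-treated cells (100%). EC50 by linear regression from concentration series; otherwise % change at a single concentration.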
# [2] = target: T2, CB2 receptor (Homo sapiens, UniProt P34972); assay: Binding assay for CB2 agonists or inverse agonists (SK-N-MC membranes, [3H]-CP-55,940)
# T2 construct: expressed in transfected cells
# How it was run: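 Membranes from SK-N-MC cells stably expressing human CB2 were incubated with radioligand and test compounds for 90 min at 30 °C in Tris-HCl buffer, pH 7.5, with MgCl2, EDTA and fatty-acid-free BSA. Filter-bound radioactivity was counted; IC50 was derived by linear regression of percent inhibition.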
# [3] = target: T1, CB1 receptor; assay: Binding assay for CB1 agonists or inverse agonists (SK-N-MC membranes, [3H]-CP-55,940); conditions: for IC50: Cannabinoid CB1 Receptor Binding IC50, calculated by linear regression from percent inhibition at various test concentrations; for inhibition at 0.2 µM: read-out: CB1 receptor binding percent inhibition, test concentration 0.2 μM (footnote 2)
# How it was run: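 Membranes from SK-N-MC cells stably expressing human CB1 incubated with compound and [3H]-CP-55,940 ([…]) for 90 min at 30° C in Tris-HCl pH 7.5, MgCl2, EDTA, fatty-acid-free BSA. Non-specific binding defined with 10 uM WIN 55,212; filtration, scintillation count; IC50 by linear regression.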
# [4] = CB1 Receptor Functional Inverse Agonist EC50, forskolin induced β-galactosidase activity, SK-N-MC cells
# [5] = read-out: CB2 receptor binding percent inhibition, test concentration 0.2 μM (footnote 2)
# [6] = CB1 Receptor Functional Agonist EC50, SK-N-MC cells, forskolin induced β-galactosidase activity
# T2 sequence (P34972 whole entry): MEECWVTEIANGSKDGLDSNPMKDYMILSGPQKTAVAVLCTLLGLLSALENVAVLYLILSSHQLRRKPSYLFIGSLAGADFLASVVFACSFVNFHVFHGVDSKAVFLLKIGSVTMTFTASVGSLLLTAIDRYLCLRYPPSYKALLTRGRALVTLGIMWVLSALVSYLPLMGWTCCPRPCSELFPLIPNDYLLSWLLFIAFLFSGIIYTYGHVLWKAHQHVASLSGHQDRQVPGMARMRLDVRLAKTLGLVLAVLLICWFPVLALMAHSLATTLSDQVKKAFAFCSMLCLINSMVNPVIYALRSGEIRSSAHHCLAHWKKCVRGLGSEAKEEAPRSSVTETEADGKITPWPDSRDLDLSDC
# T1 sequence (P21554 whole entry): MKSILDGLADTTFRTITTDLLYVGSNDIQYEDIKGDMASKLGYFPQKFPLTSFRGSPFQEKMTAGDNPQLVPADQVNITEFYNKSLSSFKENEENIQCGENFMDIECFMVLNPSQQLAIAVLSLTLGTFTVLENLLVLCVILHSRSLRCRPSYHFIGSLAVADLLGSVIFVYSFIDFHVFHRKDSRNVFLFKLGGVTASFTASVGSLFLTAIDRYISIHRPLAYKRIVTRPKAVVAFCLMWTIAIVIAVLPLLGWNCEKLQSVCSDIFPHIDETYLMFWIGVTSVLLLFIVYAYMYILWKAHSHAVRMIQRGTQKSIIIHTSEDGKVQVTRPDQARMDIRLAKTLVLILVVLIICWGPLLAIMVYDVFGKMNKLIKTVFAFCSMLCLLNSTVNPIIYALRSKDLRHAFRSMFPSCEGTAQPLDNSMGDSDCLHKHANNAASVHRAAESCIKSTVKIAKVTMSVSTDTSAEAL
SMILES,"EC50 [1, 4]","inhibition at 0.2 µM [2, 5]",IC50 [3],inhibition at 0.2 µM [3],"IC50 ([2]; Cannabinoid CB2 Receptor Binding IC50, calculated by linear regression from percent inhibition at various test concentrations)",CB2 receptor binding percent inhibition ([2]; test concentration not stated),"EC50 ([1]; forskolin induced β-galactosidase activity, SK-N-MC cells, read-out: CB1 Receptor Functional Inverse Agonist EC50)","inhibition at 0.2 µM ([2]; test concentration 0.2 μM (footnote 2), read-out: CB2 receptor binding percent inhibition)","inhibition at 0.0125 µM ([3]; read-out: CB1 receptor binding percent inhibition, test concentration 0.0125 μM (footnote 13))",CB1 receptor binding percent inhibition ([3]; test concentration not stated),"EC50 [1, 6]"
"C[C@H](NC(=O)c1nn(-c2ccc(Cl)cc2Cl)c2c1CCCC/C2=C\c1ccc(Cl)cc1)C1CCCCC1 [Cpd 138, (8E)-8-(4-chloro-benzylidene)-1-(2,4-dichloro-phenyl)-1,4,5,6,7,8-hexahydro-cycloheptapyrazole-3-carboxylic acid [(1S)-1-cyclohexyl-ethyl]-amide]",100 nM,22%,30 nM,71%,,,,,,,
"C[C@@H](NC(=O)c1nn(-c2ccc(Cl)cc2Cl)c2c1CCCC/C2=C\c1ccc(F)cc1)c1ccccc1 [Cpd 146, (8E)-1-(2,4-dichloro-phenyl)-8-(4-fluoro-benzylidene)-1,4,5,6,7,8-hexahydro-cycloheptapyrazole-3-carboxylic acid [(1R)-1-phenyl-ethyl]-amide]",20 nM,10%,8 nM and 10 nM,93%,2300 nM,3%,,,,,
"C[C@@H](NC(=O)c1nn(-c2ccc(Cl)cc2Cl)c2c1CCCC/C2=C\c1ccc(F)cc1)C1CCCCC1 [Cpd 147, (8E)-1-(2,4-dichloro-phenyl)-8-(4-fluoro-benzylidene)-1,4,5,6,7,8-hexahydro-cycloheptapyrazole-3-carboxylic acid [(1R)-1-cyclohexyl-ethyl]-amide]",30 nM,23%,7 nM,94%,,,,,,,
"C[C@H](NC(=O)c1nn(-c2ccc(Cl)cc2Cl)c2c1CCCC/C2=C\c1ccc(F)cc1)C1CCCCC1 [Cpd 148, (8E)-1-(2,4-dichloro-phenyl)-8-(4-fluoro-benzylidene)-1,4,5,6,7,8-hexahydro-cycloheptapyrazole-3-carboxylic acid [(1S)-1-cyclohexyl-ethyl]-amide]",200 nM,39%,80 nM,69%,,,,,,,
"C[C@H](NC(=O)c1nn(-c2ccc(Cl)cc2Cl)c2c1CCCC/C2=C\c1ccc(F)cc1)c1ccccc1 [Cpd 149, (8E)-1-(2,4-dichloro-phenyl)-8-(4-fluoro-benzylidene)-1,4,5,6,7,8-hexahydro-cycloheptapyrazole-3-carboxylic acid [(1S)-1-phenyl-ethyl]-amide]",60 nM,4%,100 nM,66%,,,,,,,
"O=C(NN1CCCCC1)c1nn(-c2ccc(Cl)cc2Cl)c2c1CCCC/C2=C\c1ccc(F)cc1 [Cpd 150, (8E)-1-(2,4-dichloro-phenyl)-8-(4-fluoro-benzylidene)-1,4,5,6,7,8-hexahydro-cycloheptapyrazole-3-carboxylic acid piperidin-1-ylamide]",20 nM,3%,100 nM,65%,,,,,,,
"O=C(NN1CCOCC1)c1nn(-c2ccc(Cl)cc2Cl)c2c1CCCC/C2=C\c1ccc(F)cc1 [Cpd 151, (8E)-1-(2,4-dichloro-phenyl)-8-(4-fluoro-benzylidene)-1,4,5,6,7,8-hexahydro-cycloheptapyrazole-3-carboxylic acid morpholin-4-ylamide]",60 nM,15%,,51%,,,,,,,
"O=C(Nc1ccccn1)c1nn(-c2ccc(Cl)cc2Cl)c2c1CCCC/C2=C\c1ccc(Cl)cc1 [Cpd 152, (8E)-8-(4-chloro-benzylidene)-1-(2,4-dichloro-phenyl)-1,4,5,6,7,8-hexahydro-cycloheptapyrazole-3-carboxylic acid pyridin-2-ylamide]",,,,66%,,,200 nM,21%,28%,47%,
"O=C(NCc1ccccn1)c1nn(-c2ccc(Cl)cc2Cl)c2c1CCCC/C2=C\c1ccc(Cl)cc1 [Cpd 155, (8E)-8-(4-chloro-benzylidene)-1-(2,4-dichloro-phenyl)-1,4,5,6,7,8-hexahydro-cycloheptapyrazole-3-carboxylic acid (pyridin-2-ylmethyl)-amide]",30 nM,8%,70 nM,72%,,,,,,,
"O=C(NCc1ccncc1)c1nn(-c2ccc(Cl)cc2Cl)c2c1CCCC/C2=C\c1ccc(Cl)cc1 [Cpd 156, (8E)-8-(4-chloro-benzylidene)-1-(2,4-dichloro-phenyl)-1,4,5,6,7,8-hexahydro-cycloheptapyrazole-3-carboxylic acid (pyridin-4-ylmethyl)-amide]",90 nM,36%,,50%,,,,,,,
"O=C(NCCc1ccccn1)c1nn(-c2ccc(Cl)cc2Cl)c2c1CCCC/C2=C\c1ccc(Cl)cc1 [Cpd 157, (8E)-8-(4-chloro-benzylidene)-1-(2,4-dichloro-phenyl)-1,4,5,6,7,8-hexahydro-cycloheptapyrazole-3-carboxylic acid (2-pyridin-2-yl-ethyl)-amide]",40 nM,5%,100 nM,68%,,,,,,,
"O=C(N[C@@H](CO)c1ccccc1)c1n[nH]c2c1CCCCC2Cc1cccc(Cl)c1 (stereo partly drawn) [Cpd 165, 8-(3-chloro-benzyl)-1,4,5,6,7,8-hexahydro-cycloheptapyrazole-3-carboxylic acid [(1R)-2-hydroxy-1-phenyl-ethyl]-amide]",,98%,,79%,,,,,,,30 nM
"O=C(N[C@@H](CO)Cc1ccccc1)c1n[nH]c2c1CCCCC2Cc1cccc(Cl)c1 (stereo partly drawn) [Cpd 167, 8-(3-chloro-benzyl)-1,4,5,6,7,8-hexahydro-cycloheptapyrazole-3-carboxylic acid [(1R)-1-benzyl-2-hydroxy-ethyl]-amide]",,97%,,57%,,,,,,,50 nM
"O=C(N[C@H](CCl)c1ccccc1)c1nn(-c2ccc(F)cc2F)c2c1CCCCC2Cc1ccc(F)cc1 (stereo partly drawn) [Cpd 172, 1-(2,4-difluoro-phenyl)-8-(4-fluoro-benzyl)-1,4,5,6,7,8-hexahydro-cycloheptapyrazole-3-carboxylic acid [(1S)-2-chloro-1-phenyl-ethyl]-amide]",100 nM,41%,,64%,,,,,,,
"C[C@@H](NC(=O)c1nn(-c2ccc(S(N)(=O)=O)cc2)c2c1CCCC/C2=C\c1ccc(Cl)cc1)c1ccccc1 [Cpd 184, (8E)-8-(4-chloro-benzylidene)-1-(4-sulfamoyl-phenyl)-1,4,5,6,7,8-hexahydro-cycloheptapyrazole-3-carboxylic acid [(1R)-1-phenyl-ethyl]-amide]",3 nM,27%,50 nM,78%,,,,,,,
"C[C@@H](NC(=O)c1nn(-c2ccc(S(N)(=O)=O)cc2)c2c1CCCC/C2=C\c1ccc(Cl)cc1)C1CCCCC1 [Cpd 185, (8E)-8-(4-chloro-benzylidene)-1-(4-sulfamoyl-phenyl)-1,4,5,6,7,8-hexahydro-cycloheptapyrazole-3-carboxylic acid [(1R)-1-cyclohexyl-ethyl]-amide]",< 3 nM,56%,30 nM,75%,,,,,,,
"O=C(c1nn(-c2ccc(Cl)cc2Cl)c2c1CCCC/C2=C\c1ccc(F)cc1)N1CCCC1c1ccccn1 (stereo not drawn) [Cpd 188, (8E)-[1-(2,4-dichloro-phenyl)-8-(4-fluoro-benzylidene)-1,4,5,6,7,8-hexahydro-cycloheptapyrazol-3-yl]-(2-pyridin-2-yl-pyrrolidin-1-yl)-methanone]",10 nM,36%,100 nM,64%,,,,,,,
"C[C@@H](NC(=O)c1nn(-c2ccccc2Cl)c2c1CCCC/C2=C\c1ccc(Cl)cc1)C1CCCCC1 [Cpd 189, (8E)-8-(4-chloro-benzylidene)-1-(2-chloro-phenyl)-1,4,5,6,7,8-hexahydro-cycloheptapyrazole-3-carboxylic acid [(1R)-1-cyclohexyl-ethyl]-amide]",10 nM,17%,50 nM,78%,,,,,,,
"C[C@@H](NC(=O)c1nn(-c2ccccc2Cl)c2c1CCCC/C2=C\c1ccc(Cl)cc1)c1ccccc1 [Cpd 190, (8E)-8-(4-chloro-benzylidene)-1-(2-chloro-phenyl)-1,4,5,6,7,8-hexahydro-cycloheptapyrazole-3-carboxylic acid [(1R)-1-phenyl-ethyl]-amide]",9 nM,12%,80 nM,76%,,,,,,,
"C[C@H](NC(=O)c1nn(-c2cc(Cl)ccc2Cl)c2c1CCCC/C2=C\c1ccc(Cl)cc1)C1CCCCC1 [Cpd 197, (8E)-8-(4-chloro-benzylidene)-1-(2,5-dichloro-phenyl)-1,4,5,6,7,8-hexahydro-cycloheptapyrazole-3-carboxylic acid [(1S)-1-cyclohexyl-ethyl]-amide]",3 nM,67%,30 nM,83%,,,,,,,
